The values that follow come from patent US9527807B2, “Sulfonamide derivative and use thereof” (Takeda Pharmaceutical Company Limited, priority 2011, dated 2016).

Molecules are shown by their SMILES. Structures can show the parent of a compound that is named as a salt.

The target in the test is T1, AMPA receptor (human GluR1 flip/stargazin expressed in CHO-K1 cells) (Homo sapiens, UniProt P42261).
T1 construct: expressed in transfected cells; host or cells: CHO-K1
T1 sequence (P42261 19-906 isoform P42261-2 limits assumed): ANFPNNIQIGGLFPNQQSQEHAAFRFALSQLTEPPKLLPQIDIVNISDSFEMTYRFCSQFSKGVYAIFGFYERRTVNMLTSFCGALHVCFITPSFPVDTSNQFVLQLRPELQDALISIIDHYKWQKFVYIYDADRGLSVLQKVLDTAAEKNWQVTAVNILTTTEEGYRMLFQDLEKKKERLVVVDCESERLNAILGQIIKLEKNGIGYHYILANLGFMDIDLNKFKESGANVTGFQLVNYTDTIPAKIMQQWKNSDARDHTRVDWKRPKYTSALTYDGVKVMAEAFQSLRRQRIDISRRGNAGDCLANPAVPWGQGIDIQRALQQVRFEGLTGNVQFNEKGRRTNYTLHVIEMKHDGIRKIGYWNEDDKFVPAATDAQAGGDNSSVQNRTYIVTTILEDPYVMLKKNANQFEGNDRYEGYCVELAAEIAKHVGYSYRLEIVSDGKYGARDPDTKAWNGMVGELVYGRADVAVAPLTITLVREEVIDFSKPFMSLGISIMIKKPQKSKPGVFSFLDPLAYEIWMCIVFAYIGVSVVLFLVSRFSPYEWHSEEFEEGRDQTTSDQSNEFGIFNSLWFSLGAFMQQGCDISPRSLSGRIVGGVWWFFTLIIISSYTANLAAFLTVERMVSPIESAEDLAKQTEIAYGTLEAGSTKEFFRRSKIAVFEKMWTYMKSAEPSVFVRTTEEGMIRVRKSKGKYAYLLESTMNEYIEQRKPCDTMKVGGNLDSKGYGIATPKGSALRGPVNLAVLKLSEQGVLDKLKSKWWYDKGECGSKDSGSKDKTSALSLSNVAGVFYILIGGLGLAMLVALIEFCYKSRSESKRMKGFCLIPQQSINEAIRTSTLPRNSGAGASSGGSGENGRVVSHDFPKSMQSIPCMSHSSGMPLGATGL
T1 sequence (Q9Y698 whole entry partner): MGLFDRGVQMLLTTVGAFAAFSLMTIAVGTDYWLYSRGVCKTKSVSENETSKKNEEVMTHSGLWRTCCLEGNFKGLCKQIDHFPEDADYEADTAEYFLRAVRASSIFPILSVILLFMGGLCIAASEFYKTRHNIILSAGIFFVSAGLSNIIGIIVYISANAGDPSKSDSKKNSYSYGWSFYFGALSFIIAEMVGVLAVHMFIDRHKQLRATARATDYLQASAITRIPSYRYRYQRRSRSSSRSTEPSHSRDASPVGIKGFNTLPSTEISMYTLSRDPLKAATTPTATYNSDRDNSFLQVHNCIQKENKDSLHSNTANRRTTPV
Put plainly: AMPA receptor function enhancing activity using calcium influx as index. Particulars: change in fluorescence level in 3 min, 100% = 3 mM glutamic acid + 300 μM cyclothiazide, 0% = 3 mM glutamic acid only. In kind it is cell-based. The procedure, abridged: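 CHO-K1 cells co-expressing human GluR1 flip and stargazin, Calcium 4 dye with 1.25 mM probenecid; compound added with glutamate (3 mM final), fluorescence change over 3 min. Activity (%) scaled between 3 mM glutamate alone (0%) and glutamate plus 300 μM cyclothiazide (100%).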
As for `CS(=O)(=O)N[C@H]1CCC(F)(F)C[C@@H]1COc1ccc(-c2ccc(C#N)cn2)cc1` [Example 268, N-[(1S,2S)-2-{[4-(5-cyanopyridin-2-yl)phenoxy]methyl}-4,4-difluorocyclohexyl]methanesulfonamide], the “activity (%)” value stood at 101%. In the case of `CS(=O)(=O)N[C@H]1CCOC[C@@H]1COc1ccc(-n2cc(Cl)cn2)cc1` [Example 269, N-[(3R,4S)-3-{[4-(4-chloro-1H-pyrazol-1-yl)phenoxy]methyl}tetrahydro-2H-pyran-4-yl]methanesulfonamide] it was 93%; in that of `O=S(=O)(N[C@H]1CCOC[C@@H]1COc1ccc(-n2cc(Cl)cn2)cc1)C1CC1` [Example 277, N-[(3R,4S)-3-{[4-(4-chloro-1H-pyrazol-1-yl)phenoxy]methyl}tetrahydro-2H-pyran-4-yl]cyclopropanesulfonamide], 90%; in that of `O=S(=O)(N[C@H]1CCCO[C@@H]1COc1ccc(-c2ccc(F)cn2)cc1)C1CC1` [Example 282, 1,5-anhydro-4-[(cyclopropylsulfonyl)amino]-2,3,4-trideoxy-6-β-[4-(5-fluoropyridin-2-yl)phenyl]-D-erythro-hexitol], 96%. The figure for `CS(=O)(=O)N[C@H]1COCC[C@@H]1COc1ccc(-c2ncc(F)cn2)cc1` [Example 283, N-[(3R,4S)-4-{[4-(5-fluoropyrimidin-2-yl)phenoxy]methyl}tetrahydro-2H-pyran-3-yl]methanesulfonamide] is 98%; for `CS(=O)(=O)N[C@H]1COCC[C@@H]1COc1ccc(-c2ncc(Cl)cn2)cc1` [Example 284, N-[(3R,4S)-4-{[4-(5-chloropyrimidin-2-yl)phenoxy]methyl}tetrahydro-2H-pyran-3-yl]methanesulfonamide] it is 92%.

Consider `CCS(=O)(=O)N[C@H]1CCOC[C@@H]1COc1ccc(-c2ccc(C#N)cn2)cc1` [Example 297, N-[(3R,4S)-3-{[4-(5-cyanopyridin-2-yl)phenoxy]methyl}tetrahydro-2H-pyran-4-yl]ethanesulfonamide], for which the “activity (%)” value was found to be 95%. In the case of `O=S(=O)(N[C@H]1CCOC[C@@H]1COc1ccc(-c2ncc(Cl)s2)cc1)C1CC1` [Example 312, N-[(3R,4S)-3-{[4-(5-chloro-1,3-thiazol-2-yl)phenoxy]methyl}tetrahydro-2H-pyran-4-yl]cyclopropanesulfonamide] it was 91%. As to `O=S(=O)(N[C@H]1COCC[C@@H]1COc1ccc(-c2ncc(Cl)cc2F)cc1)C1CC1` [Example 383, N-[(3R,4S)-4-{[4-(5-chloro-3-fluoropyridin-2-yl)phenoxy]methyl}tetrahydro-2H-pyran-3-yl]cyclopropanesulfonamide], the “activity (%)” value was 60%. In the case of `CCS(=O)(=O)N[C@H]1CCCO[C@@H]1COc1ccc(-c2ncc(F)cn2)cc1` [Example 399, 1,5-anhydro-2,3,4-trideoxy-4-[(ethylsulfonyl)amino]-6-O-[4-(5-fluoropyrimidin-2-yl)phenyl]-D-erythro-hexitol] it was 94%; in that of `CS(=O)(=O)N[C@H]1CCOC[C@@H]1COc1ccc(-n2cccn2)c(F)c1F` [Example 425, N-[(3R,4S)-3-{[2,3-difluoro-4-(1H-pyrazol-1-yl)phenoxy]methyl}tetrahydro-2H-pyran-4-yl]methanesulfonamide hydrochloride], 96%; in that of `CCS(=O)(=O)N[C@H]1CCOC[C@@H]1COc1ccc(-n2cc(Cl)cn2)cc1F` [Example 454, N-[(3R,4S)-3-{[4-(4-chloro-1H-pyrazol-1-yl)-2-fluorophenoxy]methyl}tetrahydro-2H-pyran-4-yl]ethanesulfonamide], 89%. In the case of `CCS(=O)(=O)N[C@H]1CCC(F)(F)C[C@@H]1COc1ccc(N2CCCC2=O)cc1` [Example 482, N-[(1S,2S)-4,4-difluoro-2-{[4-(2-oxopyrrolidin-1-yl)phenoxy]methyl}cyclohexyl] ethanesulfonamide] it was 99%.
